In patent publication US20260193268A1, “TRICYCLIC PI3Ka INHIBITOR, PREPARATION METHOD THEREFOR, AND PHARMACEUTICAL USE THEREOF” (WIGEN BIOMEDICINE TECHNOLOGY (SHANGHAI) CO., LTD., priority 2022, published 2026):

What was measured:
[1] = test system: HCC1954 cells (with PI3Kα H1047R mutation); assay: In vitro inhibition of HCC1954 cell proliferation (CellTiter-Lumi); type: cell-based; conditions: Homo sapiens, HCC1954, 144 h, HCC1954 cells, 144 h, CellTiter-Lumi; class symbols; read-out: Inhibitory activity against HCC1954 cells (IC50), class symbols
Description: Assay for In Vitro Inhibition of HCC1954 Cell Proliferation by Compounds of the Present Disclosure
The growth of the cells was evaluated, and the IC50 for the inhibition of cell growth by the compounds was calculated.

[2] = test system: MCF-7 cells (with PI3Kα E545K mutation); assay: In vitro inhibition of MCF-7 cell proliferation (CellTiter-Lumi); type: cell-based; conditions: Homo sapiens, MCF7, 144 h, class symbols, read-out: Inhibitory activity against MCF-7 cells (IC50), class symbols
Procedure, shortened: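 Growth IC50 derived from ATP luminescence (CellTiter-Lumi) after 144 h exposure of MCF-7 cells carrying PI3Kα E545K, plated 2000 cells/well and dosed with serial dilutions one day after seeding.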

SMILES | IC50 [1] [µM] | IC50 [2] [µM]
CC(C)(C=C(C#N)C(=O)Nc1ccc(N2CC(N3CCN(c4ccc5c(c4)-c4nc(N6C(=O)OC[C@H]6C(F)F)cn4CCO5)CC3)C2)c(F)c1)NC(=O)OC(C)(C)C [Compound 345] | < 0.05 | < 0.05
CC(=O)NC(C)(C)C=C(C#N)C(=O)Nc1ccc(N2CC(N3CCN(c4ccc5c(c4)-c4nc(N6C(=O)OC[C@H]6C(F)F)cn4CCO5)CC3)C2)c(F)c1 [Compound 347] | < 0.05 | < 0.05
CC(=O)NC(C)(C)C=C(C#N)C(=O)Nc1ccc(N2CC(N3CCN(c4ccc5c(c4)-c4nc(N6C(=O)OC[C@H]6C(F)F)cn4CCO5)CC3)C2)nc1 [Compound 348] | < 0.05 | < 0.05
CNC(C)(C)C=C(C#N)C(=O)Nc1ccc(N2CC(N3CCN(c4ccc5c(c4)-c4nc(N6C(=O)OC[C@H]6C(F)F)cn4CCO5)CC3)C2)c(Cl)c1 [Compound 350] | < 0.05 | < 0.05
CC(C)(N)C=C(C#N)C(=O)Nc1ccc(N2CC(N3CCN(c4ccc5c(c4)-c4nc(N6C(=O)OC[C@H]6C(F)F)cn4CCO5)CC3)C2)c(Cl)c1 [Compound 351] | < 0.05 | < 0.05
CN(C1COC1)C(C)(C)C=C(C#N)C(=O)Nc1ccc(N2CC(N3CCN(c4ccc5c(c4)-c4nc(N6C(=O)OC[C@H]6C(F)F)cn4CCO5)CC3)C2)c(Cl)c1 [Compound 352] | < 0.05 | < 0.05
CC(C)(C=C(C#N)C(=O)Nc1ccc(N2CC(N3CCN(c4ccc5c(c4)-c4nc(N6C(=O)OC[C@H]6C(F)F)cn4CCO5)CC3)C2)c(Cl)c1)NC1COC1 [Compound 353] | < 0.05 | < 0.05
CC(C)(C=C(C#N)C(=O)Nc1ccc(N2CC(N3CCN(c4ccc5c(c4)-c4nc(N6C(=O)OC[C@H]6C(F)F)cn4CCO5)CC3)C2)c(Cl)c1)N1CCC1 [Compound 354] | < 0.05 | < 0.05
CC(C)(C)C=C(C#N)C(=O)Nc1ccc(N2CC(N3CCN(c4ccc5c(c4)-c4nc(N6C(=O)OC[C@H]6C(F)F)cn4CCO5)CC3)C2)c(Cl)c1 [Compound 355] | < 0.05 | < 0.05
CN(C)C/C=C/C(=O)Nc1ccc(N2CC(N3CCN(c4ccc5c(c4)-c4nc(N6C(=O)OC[C@H]6C(F)F)cn4CCO5)CC3)C2)c(Cl)c1 [Compound 356] | < 0.05 | < 0.05
CC(=O)NC(C)(C)C=C(C#N)C(=O)Nc1ccc(N2CC(N3CCN(c4ccc5c(c4)-c4nc(N6C(=O)OC[C@H]6C(F)F)cn4CCO5)CC3)C2)c(Cl)c1 [Compound 357] | < 0.05 | < 0.05
CC(C)(C=C(C#N)C(=O)Nc1ccc(N2CC(N3CCN(c4ccc5c(c4)-c4nc(N6C(=O)OC[C@H]6C(F)F)cn4CCO5)CC3)C2)cc1Cl)NC(=O)OC(C)(C)C [Compound 358] | < 0.05 | < 0.05
CNC(C)(C)C=C(C#N)C(=O)Nc1ccc(N2CC(N3CCN(c4ccc5c(c4)-c4nc(N6C(=O)OC[C@H]6C(F)F)cn4CCO5)CC3)C2)cc1Cl [Compound 359] | < 0.05 | < 0.05
CC(C)(N)C=C(C#N)C(=O)Nc1ccc(N2CC(N3CCN(c4ccc5c(c4)-c4nc(N6C(=O)OC[C@H]6C(F)F)cn4CCO5)CC3)C2)cc1Cl [Compound 360] | < 0.05 | < 0.05
CN(C1COC1)C(C)(C)C=C(C#N)C(=O)Nc1ccc(N2CC(N3CCN(c4ccc5c(c4)-c4nc(N6C(=O)OC[C@H]6C(F)F)cn4CCO5)CC3)C2)cc1Cl [Compound 361] | < 0.05 | < 0.05
CC(C)(C=C(C#N)C(=O)Nc1ccc(N2CC(N3CCN(c4ccc5c(c4)-c4nc(N6C(=O)OC[C@H]6C(F)F)cn4CCO5)CC3)C2)cc1Cl)NC1COC1 [Compound 362] | < 0.05 | < 0.05
CC(C)(C=C(C#N)C(=O)Nc1ccc(N2CC(N3CCN(c4ccc5c(c4)-c4nc(N6C(=O)OC[C@H]6C(F)F)cn4CCO5)CC3)C2)cc1Cl)N1CCC1 [Compound 363] | < 0.05 | < 0.05
CC(C)(C)C=C(C#N)C(=O)Nc1ccc(N2CC(N3CCN(c4ccc5c(c4)-c4nc(N6C(=O)OC[C@H]6C(F)F)cn4CCO5)CC3)C2)cc1Cl [Compound 364] | < 0.05 | < 0.05
CN(C)C/C=C/C(=O)Nc1ccc(N2CC(N3CCN(c4ccc5c(c4)-c4nc(N6C(=O)OC[C@H]6C(F)F)cn4CCO5)CC3)C2)cc1Cl [Compound 365] | < 0.05 | < 0.05
CC(=O)NC(C)(C)C=C(C#N)C(=O)Nc1ccc(N2CC(N3CCN(c4ccc5c(c4)-c4nc(N6C(=O)OC[C@H]6C(F)F)cn4CCO5)CC3)C2)cc1Cl [Compound 366] | < 0.05 | < 0.05
Cc1nc(-c2cn3c(n2)-c2cc(N4CCN(C5CN(c6ccc(NC(=O)C(C#N)=CC(C)(C)C)cc6F)C5)CC4)ccc2OCC3)n(C(C)C)n1 [Compound 367] | < 0.05 | < 0.05
Cc1nc(-c2cn3c(n2)-c2cc(N4CCN(C5CN(c6ccc(NC(=O)C(C#N)=CC(C)(C)C)cn6)C5)CC4)ccc2OCC3)n(C(C)C)n1 [Compound 368] | < 0.05 | < 0.05

SMILES | IC50 [1] [µM] | IC50 [2] [µM]
Cc1nc(-c2cn3c(n2)-c2cc(N4CCN(C5CN(c6ccc(NC(=O)C(C#N)=CC(C)(C)C)cc6Cl)C5)CC4)ccc2OCC3)n(C(C)C)n1 [Compound 369] | < 0.05 | < 0.05
Cc1nc(-c2cn3c(n2)-c2cc(N4CCN(C5CN(c6ccc(NC(=O)C(C#N)=CC(C)(C)C)c(Cl)c6)C5)CC4)ccc2OCC3)n(C(C)C)n1 [Compound 370] | < 0.05 | < 0.05
CC(C)n1ncnc1-c1cn2c(n1)-c1cc(N3CCN(C4CN(c5ccc(NC(=O)C(C#N)=CC(C)(C)C)cn5)C4)CC3)ccc1OCC2 [Compound 371] | < 0.05 | < 0.05
Cc1nc(-c2cn3c(n2)-c2cc(N4CCN(C5CN(c6ccc(NC(=O)C(C#N)=CC(C)(C)NC(=O)OC(C)(C)C)cn6)C5)CC4)ccc2OCC3)n(C(C)C)n1 [Compound 372] | < 0.05 | < 0.05
Cc1nc(-c2cn3c(n2)-c2cc(N4CCN(C5CN(c6ccc(NC(=O)C(C#N)=CC(C)(C)NC(=O)OC(C)(C)C)cc6Cl)C5)CC4)ccc2OCC3)n(C(C)C)n1 [Compound 373] | < 0.05 | < 0.05
Cc1nc(-c2cn3c(n2)-c2cc(N4CCN(C5CN(c6ccc(NC(=O)C(C#N)=CC(C)(C)NC(=O)OC(C)(C)C)cc6F)C5)CC4)ccc2OCC3)n(C(C)C)n1 [Compound 374] | < 0.05 | < 0.05
CC(=O)NC(C)(C)C=C(C#N)C(=O)Nc1ccc(N2CC(N3CCN(c4ccc5c(c4)-c4nc(-c6nc(C)nn6C(C)C)cn4CCO5)CC3)C2)cc1 [Compound 375] | < 0.05 | < 0.05
C=CC(=O)Nc1ccc(N2CC(N3CCN(c4ccc5c(c4)-c4nc(-c6nc(C)nn6C(C)C)cn4CCO5)CC3)C2)c(F)c1 [Compound 376] | < 0.05 | < 0.05
C=CC(=O)Nc1ccc(N2CC(N3CCN(c4ccc5c(c4)-c4nc(-c6nc(C)nn6C(C)C)cn4CCO5)CC3)C2)cc1Cl [Compound 377] | < 0.05 | < 0.05
C=CC(=O)Nc1ccc(N2CC(N3CCN(c4ccc5c(c4)-c4nc(-c6nc(C)nn6C(C)C)cn4CCO5)CC3)C2)nc1 [Compound 379] | < 0.05 | < 0.05
CC(C)(C=C(C#N)C(=O)Nc1ccc(N2CC(N3CCN(c4ccc5c(c4)-c4nc(N6C(=O)OC[C@H]6C(F)F)cn4CCO5)CC3)C2)cc1)NC1(C)COC1 [Compound 380] | < 0.05 | < 0.05
CC(C)(C=C(C#N)C(=O)Nc1ccc(N2CC(N3CCN(c4ccc5c(c4)-c4nc(N6C(=O)OC[C@H]6C(F)F)cn4CCO5)CC3)C2)cc1)NCC1COC1 [Compound 381] | < 0.05 | < 0.05
CC(C)(C=C(C#N)C(=O)Nc1ccc(N2CC(N3CCN(c4ccc5c(c4)-c4nc(N6C(=O)OC[C@H]6C(F)F)cn4CCO5)CC3)C2)cc1)NCC1CCO1 (some centres unmarked) [Compound 382] | < 0.05 | < 0.05
CC(C)(C=C(C#N)C(=O)Nc1ccc(N2CC(N3CCN(c4ccc5c(c4)-c4nc(N6C(=O)OC[C@H]6C(F)F)cn4CCO5)CC3)C2)cc1)NCCO [Compound 383] | < 0.05 | < 0.05
CC(C)(C=C(C#N)C(=O)Nc1ccc(N2CC(N3CCN(c4ccc5c(c4)-c4nc(N6C(=O)OC[C@H]6C(F)F)cn4CCO5)CC3)C2)c(F)c1)NC1(C)COC1 [Compound 384] | < 0.05 | < 0.05
CC(C)(C=C(C#N)C(=O)Nc1ccc(N2CC(N3CCN(c4ccc5c(c4)-c4nc(N6C(=O)OC[C@H]6C(F)F)cn4CCO5)CC3)C2)c(Cl)c1)NC1(C)COC1 [Compound 385] | < 0.05 | < 0.05
CC(C)(C=C(C#N)C(=O)Nc1ccc(N2CC(N3CCN(c4ccc5c(c4)-c4nc(N6C(=O)OC[C@H]6C(F)F)cn4CCO5)CC3)C2)nc1)NC1(C)COC1 [Compound 386] | < 0.05 | < 0.05
CCC(C=C(C#N)C(=O)Nc1ccc(N2CC(N3CCN(c4ccc5c(c4)-c4nc(N6C(=O)OC[C@H]6C(F)F)cn4CCO5)CC3)C2)cc1)(CC)NC1COC1 [Compound 387] | < 0.05 | < 0.05
N#CC(=CC1(NC2COC2)CCC1)C(=O)Nc1ccc(N2CC(N3CCN(c4ccc5c(c4)-c4nc(N6C(=O)OC[C@H]6C(F)F)cn4CCO5)CC3)C2)cc1 [Compound 388] | < 0.05 | < 0.05
CCC(C=C(C#N)C(=O)Nc1ccc(N2CC(N3CCN(c4ccc5c(c4)-c4nc(N6C(=O)OC[C@H]6C(F)F)cn4CCO5)CC3)C2)cc1)(CC)CC [Compound 389] | < 0.05 | < 0.05
CC1(C=C(C#N)C(=O)Nc2ccc(N3CC(N4CCN(c5ccc6c(c5)-c5nc(N7C(=O)OC[C@H]7C(F)F)cn5CCO6)CC4)C3)cc2)CCC1 [Compound 390] | < 0.05 | < 0.05
